In ChEMBL document CHEMBL4373693, “Virtual Screening Approach and Investigation of Structure-Activity Relationships To Discover Novel Bacterial Topoisomerase Inhibitors Targeting Gram-Positive and Gram-Negative Pathogens” (J Med Chem, 2019):
Values after ≈ are worked out from the molar mass of the structure shown.

Assays:
[1] = system: Escherichia coli; test: Selectivity ratio of MIC for Escherichia coli ATCC 25922 in presence of 50% human serum to MIC for Escherichia coli ATCC 25922; format: functional
[2] = system: Enterococcus faecium; test: Antibacterial activity against Enterococcus faecium APV 00626 after 16 to 24 hrs by broth microdilution method; format: functional
[3] = Selectivity ratio, ratio of IC50 for human HepG2 cells to MIC for Staphylococcus aureus ATCC 29213; format: toxicity; conditions: read-out: Selectivity Index
[4] = system: Staphylococcus aureus; test: Antibacterial activity against Staphylococcus aureus BAA-1720 in presence of 50% human serum after 16 to 24 hrs by broth microdilution method; format: functional
[5] = system: Enterococcus faecalis; test: Antibacterial activity against vancomycin and teicoplanin-resistant Enterococcus faecalis APV 00408 after 16 to 24 hrs by broth microdilution method; format: functional
[6] = system: Enterococcus faecium; test: Antibacterial activity against vancomycin and teicoplanin-resistant Enterococcus faecium APV 00422 after 16 to 24 hrs by broth microdilution method; format: functional
[7] = system: Enterococcus faecium; test: Antibacterial activity against vancomycin resistant and teicoplanin sensitive Enterococcus faecium APV 00553 after 16 to 24 hrs by broth microdilution method; format: functional
[8] = target: hERG (KCNH2) (Homo sapiens, UniProt Q12809); test: Inhibition of human ERG expressed in CHO cells at 10 uM after 5 mins by automated whole-cell patch clamp relative to control; format: cell-based; conditions: CHO cells that express human ERG
[9] = system: Enterococcus faecium; test: Antibacterial activity against vancomycin and teicoplanin-resistant Enterococcus faecium APV 00424 after 16 to 24 hrs by broth microdilution method; format: functional
[10] = Selectivity ratio, ratio of IC50 for human HEK293 cells to MIC for Staphylococcus aureus ATCC 29213; format: toxicity; conditions: read-out: Selectivity Index
[11] = system: Klebsiella pneumoniae; test: Antibacterial activity against quinolone-sensitive Klebsiella pneumoniae ATCC 700603 after 16 to 24 hrs by broth microdilution method; format: functional
[12] = system: Enterococcus faecalis; test: Antibacterial activity against vancomycin and teicoplanin-resistant Enterococcus faecalis APV 00409 after 16 to 24 hrs by broth microdilution method; format: functional
[13] = system: Enterococcus faecalis; test: Antibacterial activity against vancomycin-sensitive Enterococcus faecalis APV 00404 after 16 to 24 hrs by broth microdilution method; format: functional
[14] = target: DNA gyrase subunit A (Staphylococcus aureus, UniProt P20831); test: Inhibition of Staphylococcus aureus ATCC 29213 DNA gyrase A assessed as reduction in enzyme-mediated supercoiling of relaxed pBR322 DNA by ethidium bromide staining based gel electrophoresis method
[15] = system: Neisseria gonorrhoeae; test: Antibacterial activity against Neisseria gonorrhoeae ATCC 19424 after 16 to 24 hrs by broth microdilution method; format: functional
[16] = system: Haemophilus influenzae; test: Antibacterial activity against quinolone-sensitive Haemophilus influenzae H128 after 16 to 24 hrs by broth microdilution method; format: functional
[17] = system: Staphylococcus aureus; test: Antibacterial activity against Staphylococcus aureus ATCC 29213 in presence of 50% human serum after 16 to 24 hrs by broth microdilution method; format: functional
[18] = system: Enterococcus faecalis; test: Antibacterial activity against Enterococcus faecalis ATCC 29212 after 16 to 24 hrs by broth microdilution method; format: functional
[19] = Selectivity ratio, ratio of IC50 for human HEK293 cells to MIC for Escherichia coli ATCC 25922; format: toxicity; conditions: read-out: Selectivity Index
[20] = system: Staphylococcus aureus; test: Antibacterial activity against Staphylococcus aureus BAA-1720 after 16 to 24 hrs by broth microdilution method; format: functional
[21] = target: T1, DNA topoisomerase 4 subunit A (Escherichia coli K-12, UniProt P0AFI2); test: Inhibition of Escherichia coli ATCC 25922 DNA topoisomerase 4 subunit ParC assessed as reduction in decatenation of kinetoplast DNA incubated for 30 mins by ethidium bromide staining based gel electrophoresis method
T1 sequence (P0AFI2 whole entry): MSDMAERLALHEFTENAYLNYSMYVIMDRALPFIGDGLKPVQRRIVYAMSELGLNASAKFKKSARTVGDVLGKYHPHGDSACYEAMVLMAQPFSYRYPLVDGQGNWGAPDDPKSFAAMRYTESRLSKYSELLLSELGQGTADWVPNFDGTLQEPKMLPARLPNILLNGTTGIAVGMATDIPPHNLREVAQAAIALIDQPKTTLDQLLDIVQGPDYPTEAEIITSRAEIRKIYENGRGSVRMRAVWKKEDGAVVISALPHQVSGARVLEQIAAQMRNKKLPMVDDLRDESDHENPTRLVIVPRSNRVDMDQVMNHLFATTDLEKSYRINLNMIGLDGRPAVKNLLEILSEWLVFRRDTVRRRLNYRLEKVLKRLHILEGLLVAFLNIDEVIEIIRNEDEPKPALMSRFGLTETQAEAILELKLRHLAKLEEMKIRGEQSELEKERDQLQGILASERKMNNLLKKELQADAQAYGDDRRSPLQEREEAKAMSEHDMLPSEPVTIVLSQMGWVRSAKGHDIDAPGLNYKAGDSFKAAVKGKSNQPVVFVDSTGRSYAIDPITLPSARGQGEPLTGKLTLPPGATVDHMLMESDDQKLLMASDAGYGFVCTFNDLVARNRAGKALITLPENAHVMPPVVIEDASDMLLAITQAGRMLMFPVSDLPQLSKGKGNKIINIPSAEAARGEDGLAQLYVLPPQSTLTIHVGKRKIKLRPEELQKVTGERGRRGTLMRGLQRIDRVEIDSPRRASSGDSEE

[22] = system: HepG2; test: Cytotoxicity against human HepG2 cells after 48 hrs by Alamar blue staining-based fluorometric analysis; format: cell-based; conditions: HepG2, 48 h
[23] = system: Enterococcus faecium; test: Antibacterial activity against Enterococcus faecium APV 00627 after 16 to 24 hrs by broth microdilution method; format: functional
[24] = target: DNA topoisomerase 4 subunit A (Staphylococcus aureus, UniProt P0C1U9); test: Inhibition of Staphylococcus aureus ATCC 29213 DNA topoisomerase 4 subunit ParC assessed as reduction in decatenation of kinetoplast DNA incubated for 30 mins by ethidium bromide staining based gel electrophoresis method
[25] = system: Enterococcus faecalis; test: Antibacterial activity against vancomycin-sensitive Enterococcus faecalis APV 00623 after 16 to 24 hrs by broth microdilution method; format: functional
[26] = system: Enterococcus faecalis; test: Antibacterial activity against vancomycin-sensitive Enterococcus faecalis APV 00406 after 16 to 24 hrs by broth microdilution method; format: functional
[27] = system: Staphylococcus aureus; test: Antibacterial activity against Staphylococcus aureus ATCC 29213 after 16 to 24 hrs by broth microdilution method; format: functional
[28] = system: Enterococcus faecium; test: Antibacterial activity against vancomycin resistant and teicoplanin sensitive Enterococcus faecium APV 00420 after 16 to 24 hrs by broth microdilution method; format: functional
[29] = system: Staphylococcus aureus; test: Selectivity ratio of MIC for Staphylococcus aureus ATCC 29213 in presence of 50% human serum to MIC for Staphylococcus aureus ATCC 29213; format: functional
[30] = system: Pseudomonas aeruginosa; test: Antibacterial activity against Pseudomonas aeruginosa ATCC 27853 after 16 to 24 hrs by CLSI method; format: functional
[31] = system: Staphylococcus aureus; test: Selectivity ratio of MIC for Staphylococcus aureus BAA-1720 in presence of 50% human serum to MIC for Staphylococcus aureus BAA-1720; format: functional
[32] = system: Escherichia coli; test: Antibacterial activity against Escherichia coli ATCC 25922 in presence of 50% human serum after 16 to 24 hrs by broth microdilution method; format: functional
[33] = system: HEK293; test: Cytotoxicity against human HEK293 cells after 48 hrs by Alamar blue staining-based fluorometric analysis; format: cell-based; conditions: HEK293, 48 h
[34] = target: DNA gyrase subunit A (Escherichia coli K-12, UniProt P0AES4); test: Inhibition of Escherichia coli ATCC 25922 DNA gyrase A assessed as reduction in enzyme-mediated supercoiling of relaxed pBR322 DNA by ethidium bromide staining based gel electrophoresis method
[35] = system: Escherichia coli; test: Antibacterial activity against Escherichia coli ATCC 25922 after 16 to 24 hrs by broth microdilution method; format: functional
[36] = system: Haemophilus influenzae; test: Antibacterial activity against quinolone-sensitive Haemophilus influenzae ATCC 49766 after 16 to 24 hrs by broth microdilution method; format: functional
[37] = Selectivity ratio, ratio of IC50 for human HepG2 cells to MIC for Escherichia coli ATCC 25922; format: toxicity; conditions: read-out: Selectivity Index
[38] = system: HaCaT; test: Cytotoxicity against human HaCaT cells after 24 hrs by resazurin dye based CellTiter-Blue assay; format: cell-based

Chain of hERG (KCNH2) (Q12809 whole entry): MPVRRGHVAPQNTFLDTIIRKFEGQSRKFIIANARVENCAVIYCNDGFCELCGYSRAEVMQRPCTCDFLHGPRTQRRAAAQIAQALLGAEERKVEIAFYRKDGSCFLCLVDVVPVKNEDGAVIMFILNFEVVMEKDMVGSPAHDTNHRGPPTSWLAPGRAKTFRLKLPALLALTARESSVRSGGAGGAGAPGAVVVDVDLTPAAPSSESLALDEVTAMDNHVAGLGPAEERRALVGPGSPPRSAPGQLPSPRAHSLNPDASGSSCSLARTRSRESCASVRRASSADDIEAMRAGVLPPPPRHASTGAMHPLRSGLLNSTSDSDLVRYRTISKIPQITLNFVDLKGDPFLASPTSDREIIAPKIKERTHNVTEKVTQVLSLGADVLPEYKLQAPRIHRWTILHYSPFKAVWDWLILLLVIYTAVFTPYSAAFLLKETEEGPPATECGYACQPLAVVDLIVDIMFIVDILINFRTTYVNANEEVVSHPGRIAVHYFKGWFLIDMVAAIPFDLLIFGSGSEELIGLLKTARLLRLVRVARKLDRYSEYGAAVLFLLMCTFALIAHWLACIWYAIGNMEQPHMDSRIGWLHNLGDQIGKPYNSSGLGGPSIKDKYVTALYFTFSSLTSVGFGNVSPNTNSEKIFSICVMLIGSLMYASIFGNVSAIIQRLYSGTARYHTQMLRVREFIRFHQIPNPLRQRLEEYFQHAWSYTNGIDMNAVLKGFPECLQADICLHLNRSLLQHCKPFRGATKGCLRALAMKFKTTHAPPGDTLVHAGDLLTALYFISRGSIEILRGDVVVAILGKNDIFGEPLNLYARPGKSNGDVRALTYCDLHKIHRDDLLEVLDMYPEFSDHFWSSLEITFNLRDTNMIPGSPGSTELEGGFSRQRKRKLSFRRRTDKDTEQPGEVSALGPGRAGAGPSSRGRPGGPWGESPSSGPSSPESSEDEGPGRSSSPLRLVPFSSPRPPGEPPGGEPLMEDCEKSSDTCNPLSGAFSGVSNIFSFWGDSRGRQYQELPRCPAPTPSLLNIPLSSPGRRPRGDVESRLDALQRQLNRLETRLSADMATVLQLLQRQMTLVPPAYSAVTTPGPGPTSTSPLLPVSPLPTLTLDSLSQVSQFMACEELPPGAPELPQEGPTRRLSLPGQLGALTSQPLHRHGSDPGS
Chain of DNA topoisomerase 4 subunit A (Staphylococcus aureus, UniProt P0C1U9) (P0C1U9 whole entry): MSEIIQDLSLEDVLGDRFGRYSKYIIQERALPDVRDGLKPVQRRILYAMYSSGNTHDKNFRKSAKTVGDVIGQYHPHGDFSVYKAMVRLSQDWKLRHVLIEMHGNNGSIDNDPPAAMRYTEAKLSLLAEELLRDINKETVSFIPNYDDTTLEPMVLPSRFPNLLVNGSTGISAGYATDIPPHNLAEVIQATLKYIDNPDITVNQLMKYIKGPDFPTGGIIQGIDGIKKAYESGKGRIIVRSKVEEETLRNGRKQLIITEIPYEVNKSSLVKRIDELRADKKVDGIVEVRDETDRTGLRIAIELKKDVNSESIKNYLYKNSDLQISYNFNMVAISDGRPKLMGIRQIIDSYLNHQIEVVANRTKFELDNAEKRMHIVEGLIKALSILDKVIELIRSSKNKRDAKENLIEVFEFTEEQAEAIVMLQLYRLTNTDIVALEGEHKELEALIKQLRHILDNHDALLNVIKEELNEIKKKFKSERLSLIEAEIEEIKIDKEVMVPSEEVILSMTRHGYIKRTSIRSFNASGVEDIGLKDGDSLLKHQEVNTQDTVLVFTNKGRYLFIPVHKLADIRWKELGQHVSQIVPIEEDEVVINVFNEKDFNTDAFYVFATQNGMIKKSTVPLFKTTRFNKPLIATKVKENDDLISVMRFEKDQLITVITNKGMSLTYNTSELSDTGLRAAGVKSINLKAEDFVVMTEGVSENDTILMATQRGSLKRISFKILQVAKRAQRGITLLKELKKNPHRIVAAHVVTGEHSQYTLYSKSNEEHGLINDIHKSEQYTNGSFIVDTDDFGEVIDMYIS
Chain of DNA gyrase subunit A (Staphylococcus aureus, UniProt P20831) (P20831 whole entry): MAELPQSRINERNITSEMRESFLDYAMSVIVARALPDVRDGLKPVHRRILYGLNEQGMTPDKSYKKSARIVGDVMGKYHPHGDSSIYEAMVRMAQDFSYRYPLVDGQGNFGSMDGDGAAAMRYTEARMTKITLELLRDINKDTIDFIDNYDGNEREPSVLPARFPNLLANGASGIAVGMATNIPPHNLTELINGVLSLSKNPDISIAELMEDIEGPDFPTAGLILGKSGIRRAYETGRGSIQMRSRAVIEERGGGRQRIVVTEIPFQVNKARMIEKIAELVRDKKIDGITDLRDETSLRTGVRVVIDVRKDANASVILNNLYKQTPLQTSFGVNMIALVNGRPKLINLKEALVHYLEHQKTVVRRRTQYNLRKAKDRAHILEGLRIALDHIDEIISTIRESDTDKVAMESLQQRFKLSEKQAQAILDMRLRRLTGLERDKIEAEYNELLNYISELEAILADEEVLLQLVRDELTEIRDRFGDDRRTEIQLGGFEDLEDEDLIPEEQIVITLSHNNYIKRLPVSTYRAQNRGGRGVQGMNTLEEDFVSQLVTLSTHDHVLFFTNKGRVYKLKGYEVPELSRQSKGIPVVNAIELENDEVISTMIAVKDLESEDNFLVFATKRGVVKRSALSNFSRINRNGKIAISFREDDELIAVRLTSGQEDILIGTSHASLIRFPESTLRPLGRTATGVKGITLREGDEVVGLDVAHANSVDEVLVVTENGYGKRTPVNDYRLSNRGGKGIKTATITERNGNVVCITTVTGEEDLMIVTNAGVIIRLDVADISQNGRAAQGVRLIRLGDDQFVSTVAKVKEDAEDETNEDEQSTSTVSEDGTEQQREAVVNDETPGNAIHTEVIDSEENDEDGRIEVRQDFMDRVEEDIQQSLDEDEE
Chain of DNA gyrase subunit A (Escherichia coli K-12, UniProt P0AES4) (P0AES4 whole entry): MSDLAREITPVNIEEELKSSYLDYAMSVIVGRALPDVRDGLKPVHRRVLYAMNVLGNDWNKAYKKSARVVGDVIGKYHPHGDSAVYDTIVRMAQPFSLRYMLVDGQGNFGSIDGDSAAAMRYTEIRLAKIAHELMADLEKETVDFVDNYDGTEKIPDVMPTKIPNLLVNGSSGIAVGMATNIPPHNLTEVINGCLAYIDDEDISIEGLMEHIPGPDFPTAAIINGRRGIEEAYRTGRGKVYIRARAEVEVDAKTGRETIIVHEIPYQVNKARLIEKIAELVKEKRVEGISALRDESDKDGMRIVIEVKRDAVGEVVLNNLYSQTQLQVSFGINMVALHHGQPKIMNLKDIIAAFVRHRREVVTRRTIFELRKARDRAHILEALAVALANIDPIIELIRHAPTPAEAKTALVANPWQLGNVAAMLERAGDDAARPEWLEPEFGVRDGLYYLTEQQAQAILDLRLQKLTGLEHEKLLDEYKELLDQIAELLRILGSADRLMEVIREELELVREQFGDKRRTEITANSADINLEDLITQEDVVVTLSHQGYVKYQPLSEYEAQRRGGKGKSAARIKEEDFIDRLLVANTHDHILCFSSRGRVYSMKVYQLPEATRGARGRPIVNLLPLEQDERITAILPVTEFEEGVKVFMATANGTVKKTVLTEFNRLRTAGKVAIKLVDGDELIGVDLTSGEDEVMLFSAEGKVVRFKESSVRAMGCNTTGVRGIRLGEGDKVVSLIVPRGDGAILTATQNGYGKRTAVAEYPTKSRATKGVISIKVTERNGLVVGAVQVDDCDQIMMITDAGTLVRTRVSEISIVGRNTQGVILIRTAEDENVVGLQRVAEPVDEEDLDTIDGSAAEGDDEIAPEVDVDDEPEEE

Compound | Ratio [1] | MIC [2] [µg/mL] | selectivity ratio [3] | MIC [4] [µg/mL] | MIC [5] [µg/mL] | MIC [6] [µg/mL] | MIC [7] [µg/mL] | inhibition at 5 min, 10 µM [8] [%] | MIC [9] [µg/mL] | selectivity ratio [10] | MIC [11] [µg/mL] | MIC [12] [µg/mL] | MIC [13] [µg/mL] | IC50 [14] [µM] | MIC [15] [µg/mL] | MIC [16] [µg/mL] | MIC [17] [µg/mL] | MIC [18] [µg/mL] | selectivity ratio [19] | MIC [20] [µg/mL] | other results
O=c1nc(NCC(O)CN2CCN(c3nccc4ccc(F)cc34)CC2)c2cc(F)ccc2o1 (racemic) | >=32 - 267 | 16 (≈ 34.2 µM) | 262 | > 8 | 0.25 (≈ 0.535 µM) | 0.25 (≈ 0.535 µM) | 0.5 (≈ 1.07 µM) | 67 | 0.12 (≈ 0.257 µM) | 381 | 4 (≈ 8.56 µM) | 0.12 (≈ 0.257 µM) | 0.25 (≈ 0.535 µM) | 0.02 | ≤ 0.06 | 0.12 (≈ 0.257 µM) | > 8 | 0.5 (≈ 1.07 µM) | 37 | 0.25 (≈ 0.535 µM) | IC50 [21]: 0.1 µM; IC50 [22]: 55 µM; MIC [23]: 1 µg/mL (≈ 2.14 µM); IC50 [24]: 0.05 µM; MIC [25]: 0.5 µg/mL (≈ 1.07 µM); MIC [26]: 0.25 µg/mL (≈ 0.535 µM); MIC [27]: 0.21 µM (≈ 0.0982 µg/mL); MIC [28]: 1 µg/mL (≈ 2.14 µM); Ratio [29]: >=32 - 267; MIC [30]: 4 µg/mL (≈ 8.56 µM); Ratio [31]: >=32 - 267; MIC [32]: > 8 µg/mL; IC50 [33]: 80 µM; IC50 [34]: 0.4 µM; MIC [35]: 2.14 µM (≈ 1 µg/mL); MIC [36]: 0.25 µg/mL (≈ 0.535 µM); selectivity ratio [37]: 26
O=c1nc(NCC(O)CN2CCN(c3nc(F)cc4ccc(F)cc34)CC2)c2cc(F)ccc2o1 (racemic) | >=32 - 267 | 32 (≈ 65.9 µM) | > 258 | 4 | 0.06 (≈ 0.124 µM) | 0.12 (≈ 0.247 µM) | 0.25 (≈ 0.515 µM) | 24 | 0.06 (≈ 0.124 µM) | > 433 | 1 (≈ 2.06 µM) | 0.06 (≈ 0.124 µM) | 0.12 (≈ 0.247 µM) | 0.02 | ≤ 0.06 | 0.06 (≈ 0.124 µM) | 4 | 0.12 (≈ 0.247 µM) | 51 | 0.03 (≈ 0.0618 µM) | IC50 [38]: > 100 µM; IC50 [21]: 0.1 µM; IC50 [22]: 31 µM; MIC [23]: 0.5 µg/mL (≈ 1.03 µM); IC50 [24]: 0.04 µM; MIC [25]: 0.12 µg/mL (≈ 0.247 µM); MIC [26]: 0.06 µg/mL (≈ 0.124 µM); MIC [27]: < 0.12 µM; MIC [28]: 0.25 µg/mL (≈ 0.515 µM); Ratio [29]: >=32 - 267; MIC [30]: 2 µg/mL (≈ 4.12 µM); Ratio [31]: >=32 - 267; MIC [32]: > 8 µg/mL; IC50 [33]: 52 µM; IC50 [34]: 0.1 µM; MIC [35]: 1.02 µM (≈ 0.495 µg/mL); MIC [36]: 0.12 µg/mL (≈ 0.247 µM); selectivity ratio [37]: 30
